US8217013B2, “Polyene diester antibiotics” (priority 2007, dated 2012)

Tests used:
Assay in all cases: Test of antibacterial activity in vitro (bacteria-inhibition zone)
Format in all cases: cell-based
Conditions in all cases: 2.8 μg/ml after conversion
[1] = test system: Candida mycoderma
Text: (§1) Test of Antibacterial Activity In Vitro
(§2) Experiment drugs: the polyene diester compounds prepared by examples 1-12
(§3) Control drugs: amphotericin B (standard product) • mycostatin (standard product) • natamycin (standard product)
2.3 Preparation of Candida mycoderrna suspension: the method is as same as preparation of Saccharomyces cerevisiae suspension
(§4) Taking appropriate amount of the above mentioned amphotericin B, mycostatin, natamycin and the polyene diester compounds prepared by examples 1-8 and 10-12, dissolving in a little dimethyl sulfoxide respectively, using pH7 phosphate buffer to dilute into solution which is equivalent to contain amphotericin B, mycostatin, natamycin 280 Units per milliliter, taking 1 ml and using pH7 phosphate buffer to quantitatively dilute into solution which is equivalent to contain amphotericin B 1.4 μg/ml and 2.8 μg/ml, and is equivalent to contain 5.6 μg/ml of mycostatin and natamycin.
(§5) In addition, preparing the solution according to the same method, adding 40% defibered sheep serum, using pH7 phosphate buffer to quantitatively dilute into unit solution which is equivalent to contain amphotericin B 1.4 μg/ml and 2.8 μg/ml, and is equivalent to contain 5.6 μg/ml of mycostatin and natamycin. Testing according to PHARMACOPOEIA OF THE PEOPLES REPUBLIC OF CHINA, second part, 2005 edition, appendix XIA The Antibiotics Microorganism Test.
(§6) Medium: Improved Martin Agar Medium, PHARMACOPOEIA OF THE PEOPLES REPUBLIC OF CHINA, second part, 2005 edition, appendix p 84.
(§7) Test method: Double-plate counting method; […] bacteria bed 15 ml to replace the double layers, culture temperature: 37° C., time: 24 h; strain concentration: 1%
(§8) Medium: Modified Martin Broth Medium

[2] = test system: Saccharomyces cerevisiae
Text: as §1, §2, §3
2.2 Preparation of Saccharomyces cerevisiae suspension: PHARMACOPOEIA OF THE PEOPLES REPUBLIC OF CHINA, second part, 2005 edition, appendix p 80, p 83.
as §4, §5, §6, §7, §8

[3] = test system: Candida albicans
Text: as §1, §2, §3
2.1 Preparation of Candida albicans suspension: PHARMACOPOEIA OF THE PEOPLES REPUBLIC OF CHINA, second part, 2005 edition, appendix p 81-84.
as §4, §5, §6
Test method: Double-plate counting method; […] bacteria bed 15 ml to replace the double layers, culture temperature: 37° C., time: 24 h; strain concentration: 1% […]

[4] = serum added (40% defibered sheep serum)

Cc1oc(=O)oc1COC(=O)C1C(O)CC2(O)CC(O)CC(O)C(O)CCC(O)CC(O)CC(=O)OC(C)C(C)C(O)C(C)C=CC=CC=CC=CC=CC=CC=CC(OC3OC(C)C(O)C(N)C3O)CC1O2 (stereo not drawn) [amphotericin B-5-methyl-1,3-dioxol-2-one-4-methyl ester]
++ (9-12 mm: ++): diameter of the bacteria-inhibition zone, Candida mycoderma 0 h ([1]; no serum) | diameter of the bacteria-inhibition zone, Candida mycoderma 0 h [1, 4] | diameter of the bacteria-inhibition zone, Candida mycoderma 6 h ([1]; 6 h, no serum) | diameter of the bacteria-inhibition zone, Candida mycoderma 24 h ([1]; 24 h, no serum) | diameter of the bacteria-inhibition zone, Candida mycoderma 48 h ([1]; 48 h, no serum) | diameter of the bacteria-inhibition zone, Saccharomyces cerevisiae 0 h ([2]; no serum) | diameter of the bacteria-inhibition zone, Saccharomyces cerevisiae 0 h [2, 4] | diameter of the bacteria-inhibition zone, Saccharomyces cerevisiae 6 h ([2]; 6 h, no serum) | diameter of the bacteria-inhibition zone, Saccharomyces cerevisiae 24 h ([2]; 24 h, no serum) | diameter of the bacteria-inhibition zone, Saccharomyces cerevisiae 48 h ([2]; 48 h, no serum) | diameter of the bacteria-inhibition zone, Candida albicans 0 h ([3]; no serum) | diameter of the bacteria-inhibition zone, Candida albicans 0 h [3, 4] | diameter of the bacteria-inhibition zone, Candida albicans 6 h ([3]; 6 h, no serum) | diameter of the bacteria-inhibition zone, Candida albicans 24 h ([3]; 24 h, no serum) | diameter of the bacteria-inhibition zone, Candida albicans 48 h ([3]; 48 h, no serum)
